Assays:
MAP17 gene = MAP17 gene expression in human keratinocytes treated with ginsenoside-Re (Q-RT-PCR); format: cell-based; details: ginsenoside-Re 10 uM, 24 hours, vs untreated control, FIG. 5 (A)
Method: (§1) Various human keratinocytes were treated with a variety of materials, and change in expression of MAP17 and filaggrin genes were monitored. It was investigated whether ginsenoside-Re, a kind of ginsenoid derived from the fruit of ginseng, regulates the expression of MAP17 and filaggrin genes. Human keratinocytes were purchased from Lonza, Inc. and cultured in KBM-2 medium (Clonetics CC-3103) in a CO2 incubator under a condition of 37° C. and 5% CO2.
(§2) The cultured human keratinocytes without any treatment were used as a control group. For a test group, the human keratinocytes were further cultured for 24 hours after adding ginsenoside-Re (10 uM). Ginsenoside-Re was purchased from Wako (Kanagawa, Japan) and prepared into a solution according to the manufacturer's instructions. […]
(§3) The isolated RNA was purified once more using Qiagen RNeasy kit (Qiagen, Valencia, Calif.) and RNA quality and concentration were verified using Agilent 2100 BioAnalyzer (Agilent Technologies, Santa Clara, Calif., USA). cDNA was synthesized from the isolated RNA using Superscript RT II kit (Invitrogen, Carlsbad, Calif.), and change in gene expression was quantitatively analyzed by means of Q-RT-PCR. Change in the expression pattern of MAP17 (Hs00173779_m1) and filaggrin (Hs00856927_g1) was evaluated using TaqMan® gene expression assay kit (Applied Biosystems, Foster City, Calif.) and is shown in FIG. 5.

filaggrin gene = filaggrin gene expression in human keratinocytes treated with ginsenoside-Re (Q-RT-PCR); format: cell-based; details: ginsenoside-Re 10 uM, 24 hours, vs untreated control, FIG. 5 (B)
Method: as §1, §2, §3

CC(C)=CCC[C@](C)(O[C@@H]1O[C@H](CO)[C@@H](O)[C@H](O)[C@H]1O)[C@H]1CC[C@]2(C)[C@@H]1[C@H](O)C[C@@H]1[C@@]3(C)CC[C@H](O)C(C)(C)[C@@H]3[C@@H](O[C@@H]3O[C@H](CO)[C@@H](O)[C@H](O)[C@H]3O[C@@H]3O[C@@H](C)[C@H](O)[C@@H](O)[C@H]3O)C[C@]12C [ginsenoside-Re]
expression of the MAP17 gene in human keratinocytes (MAP17 gene): markedly decreases
expression of the filaggrin gene in human keratinocytes (filaggrin gene): increases

Reference: patent publication US20110212455A1, “METHOD OF SCREENING MATERIAL FOR IMPROVING SKIN FUNCTIONS” (AMOREPACIFIC CORPORATION, priority 2008, published 2011)
